These results are taken from article PMC10523607 (Proceedings of the National Academy of Sciences of the …, 2023).

The target in the assay is GPR34 (Homo sapiens, UniProt Q9UPC5). The assay can be described thus: Tango assay. The note with it: compared with Hit-1 or YL-365. It is filed as cell-based.
GPR34, sequence (Q9UPC5 whole entry): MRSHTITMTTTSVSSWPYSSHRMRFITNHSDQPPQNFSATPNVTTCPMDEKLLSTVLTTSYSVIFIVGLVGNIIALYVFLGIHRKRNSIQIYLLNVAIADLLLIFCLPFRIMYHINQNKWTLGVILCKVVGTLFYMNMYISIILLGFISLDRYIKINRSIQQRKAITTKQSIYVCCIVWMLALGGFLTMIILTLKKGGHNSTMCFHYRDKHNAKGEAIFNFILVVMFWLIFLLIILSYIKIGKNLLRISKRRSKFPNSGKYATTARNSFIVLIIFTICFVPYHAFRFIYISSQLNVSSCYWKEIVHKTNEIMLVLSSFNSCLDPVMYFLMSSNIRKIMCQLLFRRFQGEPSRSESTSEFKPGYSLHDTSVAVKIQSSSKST

As to `NC(=O)C1(NC(=O)Cc2ccc(OCc3ccccc3)cc2)CCN(C(=O)c2ccc(-c3cccc(Cl)c3)cc2)CC1` [C-27], the “Potency against GPR34 in words (SAR)” value is reported as “showed antagonistic effect”.
